Assay results: ChEMBL document CHEMBL1129532, “Geranylgeranyl diphosphate-based inhibitors of post-translational geranylgeranylation of cellular proteins” (J Med Chem, 1996)

What was measured:
[1] = molecular target: T1, Geranylgeranyl transferase type I (Homo sapiens, UniProt P49354+P53609); experiment: Inhibition of geranylgeranylation of P21rap in human PC-3 prostate cancer cells; type: functional, cell-based
[2] = molecular target: PC-3 cells (Homo sapiens); experiment: Inhibition of human PC-3 prostate cancer cell line proliferation
[3] = molecular target: T1, Geranylgeranyl transferase type I; experiment: Inhibition of geranylgeranylation of P21rap in human PC-3 prostate cancer cells; values are per cent of control

| residual activity [3] [%] | SMILES | IC50 [1] [µM] | IC50 [2] [µM] |
| --- | --- | --- | --- |
| – | CCOP(=O)(O)CC(=O)NOC/C=C(\C)CC/C=C(\C)CC/C=C(\C)CCC=C(C)C | 40.2 | 35.1 |
| 10.8 | CC(C)=CCC/C(C)=C/CC/C(C)=C/CC/C(C)=C/COC(=O)NS(N)(=O)=O | 28.2 | 22.2 |
